Data on 21 molecules can be found in ChEMBL document CHEMBL5291721, “A preclinical secondary pharmacology resource illuminates target-adverse drug reaction associations of marketed drugs” (Nat Commun, 2023).

What is called AC50 is the concentration at which the activity in the assay is half-maximal. A lower AC50 goes with activity at low concentration.

One assay deals with Acetylcholinesterase (Homo sapiens, UniProt P22303). The format is functional.
For the next assay, the target named is Prothrombin (Homo sapiens, UniProt P00734). The format is functional.
The next assay deals with T1, Adenosine receptor A3 (Homo sapiens, UniProt P0DMS8).
T1 sequence (P0DMS8 whole entry): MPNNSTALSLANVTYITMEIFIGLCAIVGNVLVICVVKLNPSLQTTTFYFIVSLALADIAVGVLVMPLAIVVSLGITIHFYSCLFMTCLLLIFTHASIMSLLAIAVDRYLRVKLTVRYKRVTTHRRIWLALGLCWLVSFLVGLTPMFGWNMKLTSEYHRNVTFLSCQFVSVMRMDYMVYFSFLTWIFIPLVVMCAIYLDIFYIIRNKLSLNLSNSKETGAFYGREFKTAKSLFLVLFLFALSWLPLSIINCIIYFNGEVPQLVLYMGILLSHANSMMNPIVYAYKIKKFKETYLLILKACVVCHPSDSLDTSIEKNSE

The target of assay [1] is Vascular endothelial growth factor receptor 2 (Homo sapiens, UniProt P35968). It counts as functional.
The target in another assay is Histamine H3 receptor (Homo sapiens, UniProt Q9Y5N1).
Assay [2] has as its target Muscarinic acetylcholine receptor M3 (Homo sapiens, UniProt P20309).
Assay [3] has as its target T2, Muscarinic acetylcholine receptor M1 (Homo sapiens, UniProt P11229).
T2 sequence (P11229 whole entry): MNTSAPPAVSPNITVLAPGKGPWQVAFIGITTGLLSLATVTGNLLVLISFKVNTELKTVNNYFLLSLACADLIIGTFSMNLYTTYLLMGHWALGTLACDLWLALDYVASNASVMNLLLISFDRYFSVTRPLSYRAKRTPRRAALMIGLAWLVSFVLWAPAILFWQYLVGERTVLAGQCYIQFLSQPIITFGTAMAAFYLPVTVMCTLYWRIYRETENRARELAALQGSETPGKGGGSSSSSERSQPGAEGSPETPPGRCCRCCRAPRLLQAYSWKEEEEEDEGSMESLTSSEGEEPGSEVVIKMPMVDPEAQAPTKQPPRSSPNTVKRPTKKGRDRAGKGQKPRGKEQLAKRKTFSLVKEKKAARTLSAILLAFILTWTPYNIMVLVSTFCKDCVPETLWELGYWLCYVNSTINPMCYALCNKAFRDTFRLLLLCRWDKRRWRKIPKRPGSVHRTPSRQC
The format is functional.

The target in assay [4] is T3, Gastrin/cholecystokinin type B receptor (Homo sapiens, UniProt P32239).
T3 sequence (P32239 whole entry): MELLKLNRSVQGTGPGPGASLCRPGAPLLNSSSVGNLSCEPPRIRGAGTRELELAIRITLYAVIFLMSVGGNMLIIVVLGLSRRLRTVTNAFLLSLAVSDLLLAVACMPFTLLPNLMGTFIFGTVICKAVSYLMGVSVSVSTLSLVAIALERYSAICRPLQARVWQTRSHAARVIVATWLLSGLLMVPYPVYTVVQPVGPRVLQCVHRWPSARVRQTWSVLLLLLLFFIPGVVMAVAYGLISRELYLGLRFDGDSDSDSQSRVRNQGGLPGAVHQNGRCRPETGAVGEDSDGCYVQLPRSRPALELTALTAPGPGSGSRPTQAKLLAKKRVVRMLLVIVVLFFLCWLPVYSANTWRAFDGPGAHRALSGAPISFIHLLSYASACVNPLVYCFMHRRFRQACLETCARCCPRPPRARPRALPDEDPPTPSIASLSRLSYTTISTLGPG

Assay [5] deals with Kappa-type opioid receptor (Homo sapiens, UniProt P41145).
The next assay has as its target T4, Endothelin-1 receptor (Homo sapiens, UniProt P25101).
T4 sequence (P25101 whole entry): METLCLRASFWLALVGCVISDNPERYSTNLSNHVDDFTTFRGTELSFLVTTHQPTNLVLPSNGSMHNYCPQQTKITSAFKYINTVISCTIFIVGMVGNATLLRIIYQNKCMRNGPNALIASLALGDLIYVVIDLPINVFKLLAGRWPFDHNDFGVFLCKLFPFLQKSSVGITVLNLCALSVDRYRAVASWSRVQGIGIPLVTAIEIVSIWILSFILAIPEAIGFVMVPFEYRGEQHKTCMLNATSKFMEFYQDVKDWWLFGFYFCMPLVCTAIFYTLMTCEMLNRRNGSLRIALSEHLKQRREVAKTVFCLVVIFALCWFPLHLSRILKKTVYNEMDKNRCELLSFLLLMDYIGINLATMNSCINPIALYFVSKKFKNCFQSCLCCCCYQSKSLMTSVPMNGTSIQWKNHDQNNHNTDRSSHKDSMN

In the next assay the target is Mu-type opioid receptor (Homo sapiens, UniProt P35372). Description: biochemical. The format is functional.
Assay [6] concerns the target T5, 5-hydroxytryptamine receptor 2B (Homo sapiens, UniProt P41595). It counts as functional, cell-based.
The target in assay [7] is T5, 5-hydroxytryptamine receptor 2B. It counts as functional, cell-based. The source holds these as a separate data set.
The target of a further assay is Cannabinoid receptor 1 (Homo sapiens, UniProt P21554). The format is functional, cell-based.
Assay [8] addresses T6, Alpha-1A adrenergic receptor (Homo sapiens, UniProt P35348).
T6 sequence (P35348 whole entry): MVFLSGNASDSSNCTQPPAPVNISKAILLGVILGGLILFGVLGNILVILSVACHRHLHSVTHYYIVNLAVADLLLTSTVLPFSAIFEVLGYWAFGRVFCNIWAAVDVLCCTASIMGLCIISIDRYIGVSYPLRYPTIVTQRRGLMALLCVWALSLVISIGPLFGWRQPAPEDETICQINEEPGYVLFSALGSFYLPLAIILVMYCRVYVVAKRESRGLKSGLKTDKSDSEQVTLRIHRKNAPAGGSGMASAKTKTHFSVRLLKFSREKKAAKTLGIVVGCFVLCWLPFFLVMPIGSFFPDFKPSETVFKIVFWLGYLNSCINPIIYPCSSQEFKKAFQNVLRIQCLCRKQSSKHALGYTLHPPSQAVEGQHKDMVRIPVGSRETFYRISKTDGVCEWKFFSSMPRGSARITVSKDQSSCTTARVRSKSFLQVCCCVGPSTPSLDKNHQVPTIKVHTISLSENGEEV
The format is functional, cell-based.

Sequence of Kappa-type opioid receptor (P41145 whole entry): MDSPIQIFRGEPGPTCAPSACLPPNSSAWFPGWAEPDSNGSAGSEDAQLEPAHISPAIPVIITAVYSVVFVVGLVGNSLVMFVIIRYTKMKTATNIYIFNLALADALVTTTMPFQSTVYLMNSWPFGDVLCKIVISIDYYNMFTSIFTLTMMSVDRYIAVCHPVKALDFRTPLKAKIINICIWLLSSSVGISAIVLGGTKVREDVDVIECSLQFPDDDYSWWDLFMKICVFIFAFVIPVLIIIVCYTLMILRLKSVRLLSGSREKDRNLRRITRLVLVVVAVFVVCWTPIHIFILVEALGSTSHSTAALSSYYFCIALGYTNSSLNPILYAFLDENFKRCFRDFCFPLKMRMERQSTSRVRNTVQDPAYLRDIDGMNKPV
T5 sequence (P41595 whole entry): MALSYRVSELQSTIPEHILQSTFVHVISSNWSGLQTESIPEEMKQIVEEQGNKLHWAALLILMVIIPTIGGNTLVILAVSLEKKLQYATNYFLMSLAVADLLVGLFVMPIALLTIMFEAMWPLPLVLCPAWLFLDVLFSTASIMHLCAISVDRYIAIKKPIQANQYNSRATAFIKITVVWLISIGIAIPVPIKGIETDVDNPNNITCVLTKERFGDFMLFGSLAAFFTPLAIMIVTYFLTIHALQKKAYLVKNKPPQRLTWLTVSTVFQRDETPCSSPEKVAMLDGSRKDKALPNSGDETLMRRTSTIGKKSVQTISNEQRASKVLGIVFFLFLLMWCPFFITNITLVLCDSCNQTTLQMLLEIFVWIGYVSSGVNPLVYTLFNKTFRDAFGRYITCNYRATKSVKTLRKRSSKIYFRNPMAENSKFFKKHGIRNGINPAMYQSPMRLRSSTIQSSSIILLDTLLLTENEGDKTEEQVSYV
Sequence of Vascular endothelial growth factor receptor 2 (P35968 whole entry): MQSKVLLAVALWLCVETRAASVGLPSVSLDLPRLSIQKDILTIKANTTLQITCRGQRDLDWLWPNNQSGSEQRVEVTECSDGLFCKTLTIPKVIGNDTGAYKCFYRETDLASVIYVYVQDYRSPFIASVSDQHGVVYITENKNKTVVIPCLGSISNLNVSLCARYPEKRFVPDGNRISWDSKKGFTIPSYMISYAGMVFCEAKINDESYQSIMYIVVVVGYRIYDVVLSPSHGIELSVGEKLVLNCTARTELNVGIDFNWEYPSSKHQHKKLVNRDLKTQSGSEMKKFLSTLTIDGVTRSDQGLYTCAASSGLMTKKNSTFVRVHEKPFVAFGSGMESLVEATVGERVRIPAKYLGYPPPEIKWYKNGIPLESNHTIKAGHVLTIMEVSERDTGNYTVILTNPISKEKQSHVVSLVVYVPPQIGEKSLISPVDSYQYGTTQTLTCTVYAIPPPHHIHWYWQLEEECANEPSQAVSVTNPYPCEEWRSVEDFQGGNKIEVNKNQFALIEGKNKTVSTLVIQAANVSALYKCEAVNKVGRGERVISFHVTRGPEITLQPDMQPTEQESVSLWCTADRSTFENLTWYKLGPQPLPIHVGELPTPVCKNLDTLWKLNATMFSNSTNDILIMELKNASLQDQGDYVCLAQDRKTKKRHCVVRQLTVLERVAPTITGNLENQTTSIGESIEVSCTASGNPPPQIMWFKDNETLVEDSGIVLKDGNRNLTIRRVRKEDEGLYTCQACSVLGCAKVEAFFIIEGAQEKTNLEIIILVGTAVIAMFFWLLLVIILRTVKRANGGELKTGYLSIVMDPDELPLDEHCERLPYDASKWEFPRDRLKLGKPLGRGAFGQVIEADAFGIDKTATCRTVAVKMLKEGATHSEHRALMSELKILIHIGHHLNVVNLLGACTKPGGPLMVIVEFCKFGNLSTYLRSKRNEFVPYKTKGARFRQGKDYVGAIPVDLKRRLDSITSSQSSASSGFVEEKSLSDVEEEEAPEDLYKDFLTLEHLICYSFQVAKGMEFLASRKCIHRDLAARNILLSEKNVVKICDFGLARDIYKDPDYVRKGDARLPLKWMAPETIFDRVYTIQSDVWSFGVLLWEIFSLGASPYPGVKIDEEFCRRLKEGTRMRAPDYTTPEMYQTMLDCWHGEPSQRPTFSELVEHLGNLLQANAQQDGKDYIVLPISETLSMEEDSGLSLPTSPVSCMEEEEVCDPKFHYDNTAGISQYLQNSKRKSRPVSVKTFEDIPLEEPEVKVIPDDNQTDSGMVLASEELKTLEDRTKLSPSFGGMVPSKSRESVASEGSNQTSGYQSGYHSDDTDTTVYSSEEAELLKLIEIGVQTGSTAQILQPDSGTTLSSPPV
Sequence of Acetylcholinesterase (P22303 whole entry): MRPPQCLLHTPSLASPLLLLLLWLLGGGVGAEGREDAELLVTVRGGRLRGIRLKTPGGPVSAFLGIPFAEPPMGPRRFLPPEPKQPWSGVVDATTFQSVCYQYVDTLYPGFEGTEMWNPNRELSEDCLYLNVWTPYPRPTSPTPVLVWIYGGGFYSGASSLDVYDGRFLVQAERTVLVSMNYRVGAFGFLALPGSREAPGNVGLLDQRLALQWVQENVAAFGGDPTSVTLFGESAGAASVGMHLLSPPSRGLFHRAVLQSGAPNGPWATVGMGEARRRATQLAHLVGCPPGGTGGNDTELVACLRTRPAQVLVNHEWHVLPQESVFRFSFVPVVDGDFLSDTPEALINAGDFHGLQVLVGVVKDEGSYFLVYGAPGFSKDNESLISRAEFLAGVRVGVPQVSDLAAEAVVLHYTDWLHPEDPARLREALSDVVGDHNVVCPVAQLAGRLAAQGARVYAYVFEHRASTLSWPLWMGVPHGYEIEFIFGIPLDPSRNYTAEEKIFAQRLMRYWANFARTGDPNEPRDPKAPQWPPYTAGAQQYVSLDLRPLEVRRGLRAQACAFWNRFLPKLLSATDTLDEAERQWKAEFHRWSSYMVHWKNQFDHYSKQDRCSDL
Sequence of Histamine H3 receptor (Q9Y5N1 whole entry): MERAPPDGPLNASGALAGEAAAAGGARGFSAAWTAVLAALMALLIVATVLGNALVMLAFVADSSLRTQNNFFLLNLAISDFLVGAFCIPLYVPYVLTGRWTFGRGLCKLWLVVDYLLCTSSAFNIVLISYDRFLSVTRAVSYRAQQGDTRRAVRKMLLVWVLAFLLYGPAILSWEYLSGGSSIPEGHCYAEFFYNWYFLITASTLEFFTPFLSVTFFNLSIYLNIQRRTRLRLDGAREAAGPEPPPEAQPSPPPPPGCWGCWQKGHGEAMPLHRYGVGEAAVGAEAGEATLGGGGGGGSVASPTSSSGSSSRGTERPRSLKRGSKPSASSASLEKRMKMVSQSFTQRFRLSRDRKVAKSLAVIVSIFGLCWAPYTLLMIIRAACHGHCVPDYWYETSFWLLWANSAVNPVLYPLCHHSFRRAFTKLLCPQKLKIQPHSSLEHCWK
Sequence of Mu-type opioid receptor (P35372 whole entry): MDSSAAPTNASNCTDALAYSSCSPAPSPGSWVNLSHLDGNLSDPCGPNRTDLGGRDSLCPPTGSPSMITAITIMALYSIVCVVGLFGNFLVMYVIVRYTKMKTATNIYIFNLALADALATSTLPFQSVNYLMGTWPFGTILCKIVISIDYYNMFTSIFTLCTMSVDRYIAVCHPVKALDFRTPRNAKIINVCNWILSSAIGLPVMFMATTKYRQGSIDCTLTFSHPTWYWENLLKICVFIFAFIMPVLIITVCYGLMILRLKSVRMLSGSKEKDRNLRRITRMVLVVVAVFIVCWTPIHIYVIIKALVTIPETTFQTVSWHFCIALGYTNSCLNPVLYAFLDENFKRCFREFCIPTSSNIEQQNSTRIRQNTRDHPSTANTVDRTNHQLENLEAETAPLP
Sequence of Cannabinoid receptor 1 (P21554 whole entry): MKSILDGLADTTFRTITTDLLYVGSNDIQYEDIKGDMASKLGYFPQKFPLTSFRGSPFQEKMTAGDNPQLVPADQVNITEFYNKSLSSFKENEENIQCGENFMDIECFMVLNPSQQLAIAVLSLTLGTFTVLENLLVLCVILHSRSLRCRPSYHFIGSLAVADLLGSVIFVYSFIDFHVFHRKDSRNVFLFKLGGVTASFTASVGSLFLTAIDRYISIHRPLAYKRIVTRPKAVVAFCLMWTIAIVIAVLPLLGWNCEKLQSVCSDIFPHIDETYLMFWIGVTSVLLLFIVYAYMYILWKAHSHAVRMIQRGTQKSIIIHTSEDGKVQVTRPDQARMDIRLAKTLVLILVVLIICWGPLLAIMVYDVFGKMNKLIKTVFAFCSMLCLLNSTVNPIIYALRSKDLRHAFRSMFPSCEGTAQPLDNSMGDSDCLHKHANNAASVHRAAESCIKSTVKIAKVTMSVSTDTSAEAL
Sequence of Muscarinic acetylcholine receptor M3 (P20309 whole entry): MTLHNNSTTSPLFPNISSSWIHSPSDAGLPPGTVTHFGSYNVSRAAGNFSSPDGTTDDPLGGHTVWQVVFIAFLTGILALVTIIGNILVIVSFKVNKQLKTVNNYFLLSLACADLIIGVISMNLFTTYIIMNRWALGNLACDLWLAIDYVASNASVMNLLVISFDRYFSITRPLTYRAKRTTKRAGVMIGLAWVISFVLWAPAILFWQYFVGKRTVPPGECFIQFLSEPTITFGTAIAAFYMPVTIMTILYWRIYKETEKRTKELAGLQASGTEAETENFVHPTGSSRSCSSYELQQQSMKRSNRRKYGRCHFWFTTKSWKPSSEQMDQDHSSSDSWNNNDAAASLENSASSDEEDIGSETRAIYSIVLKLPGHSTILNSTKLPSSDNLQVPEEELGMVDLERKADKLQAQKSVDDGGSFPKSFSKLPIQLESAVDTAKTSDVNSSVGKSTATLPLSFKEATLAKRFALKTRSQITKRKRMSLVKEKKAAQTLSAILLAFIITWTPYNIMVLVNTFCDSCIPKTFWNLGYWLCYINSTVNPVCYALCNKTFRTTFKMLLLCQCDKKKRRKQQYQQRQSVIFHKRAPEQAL

On to `CC(C)N(CCNC(=O)CN1CCCC1=O)C(C)C`, for which the half-maximal activity concentration (AC50) (on Acetylcholinesterase; on Prothrombin; on Adenosine receptor A3; in [1]; at Histamine H3 receptor) was more than 30 µM each time.

On to `CCC[C@H](NC(=O)[C@@H]1[C@H]2CCC[C@H]2CN1C(=O)[C@@H](NC(=O)[C@@H](NC(=O)c1cnccn1)C1CCCCC1)C(C)(C)C)C(=O)C(=O)NC1CC1`, for which the half-maximal activity concentration (AC50) in assay [2] is more than 30 µM; in [3], more than 10 µM; in assay [4] it was more than 30 µM; in [5], more than 10 µM.

On to `Cc1cc(N)c2ccccc2[n+]1CCCCCCCCCC[n+]1c(C)cc(N)c2ccccc21`, for which the AC50 on Acetylcholinesterase was 0.0264 µM; at Prothrombin, 28.8 µM; at Adenosine receptor A3, 8.73 µM; in assay [1], more than 30 µM; at Histamine H3 receptor, 0.0813 µM.

Turning to `CCOC(=O)[C@H](CCc1ccccc1)N[C@@H](C)C(=O)N(CC(=O)O)C1Cc2ccccc2C1`, the AC50 (at Acetylcholinesterase; at Prothrombin; at Adenosine receptor A3; in assay [1]; on Histamine H3 receptor) was more than 30 µM in each case.

On to `C=CCSCC1Nc2cc(Cl)c(S(N)(=O)=O)cc2S(=O)(=O)N1` (stereo not given) [ALTHIAZIDE], for which the AC50 (on Acetylcholinesterase; on Prothrombin; at Adenosine receptor A3; in assay [1]; at Histamine H3 receptor) was more than 30 µM throughout.

As for `CCN(CCCc1ccccc1)CCCc1ccccc1` [ALVERINE], the AC50 (on Acetylcholinesterase; at Prothrombin; on Adenosine receptor A3; in assay [1]; at Histamine H3 receptor) was more than 30 µM in each case.

Turning to `COc1cc(N2CCC(N3CCN(C)CC3)CC2)ccc1Nc1ncc(Cl)c(Nc2ccccc2P(C)(C)=O)n1` [BRIGATINIB], the AC50 is more than 30 µM on Acetylcholinesterase; more than 30 µM on Prothrombin; more than 30 µM on Adenosine receptor A3; 0.183 µM in assay [1]; 2.53 µM on Histamine H3 receptor.

In the case of `CN(C)CCOC(c1ccccc1)c1ccc(Br)cc1` (stereo not given) [BROMODIPHENHYDRAMINE], the AC50 (at Acetylcholinesterase; on Prothrombin; at Adenosine receptor A3; in [1]; on Histamine H3 receptor) was more than 30 µM in each case.

`O=C(O)c1cn(C2CC2)c2cc(N3CCNCC3)c(F)cc2c1=O` [CIPROFLOXACIN]: the AC50 (on Endothelin-1 receptor; on Prothrombin; in [4]) was more than 30 µM each time.

Consider `CCN(CC)C(=S)S` [DITIOCARB], for which the figures for the AC50 on Acetylcholinesterase, on Prothrombin and on Histamine H3 receptor were more than 10 µM, more than 30 µM and more than 30 µM, respectively.

Take `C=C1CC[C@H](O)C/C1=C/C=C1\CCC[C@]2(C)[C@@H]([C@H](C)/C=C/[C@H](C)C(C)C)CC[C@@H]12` [ERGOCALCIFEROL]: the AC50 at Acetylcholinesterase, on Prothrombin and on Histamine H3 receptor was more than 30 µM in each case.

For `CC(C(=O)O)c1ccc(-c2ccccc2)c(F)c1` (stereo not given) [FLURBIPROFEN], the AC50 at Mu-type opioid receptor is more than 30 µM; at Acetylcholinesterase it was more than 30 µM; in assay [6], more than 10 µM; at Prothrombin, more than 30 µM; on Adenosine receptor A3 it was more than 30 µM; in assay [7], more than 10 µM. In addition, the concentration at half-maximal activity (AC50) at Histamine H3 receptor was more than 30 µM; in assay [5], more than 10 µM.

On to `Cc1cnc(C(=O)NCCc2ccc(S(=O)(=O)NC(=O)NC3CCCCC3)cc2)cn1` [GLIPIZIDE], for which the AC50 at Endothelin-1 receptor was more than 30 µM; on Prothrombin, more than 30 µM; in assay [4] it was more than 30 µM; at Histamine H3 receptor, more than 30 µM; in assay [5], more than 10 µM.

As to `CC(C)NCC(O)c1ccc(O)c(O)c1` (stereo not given) [ISOPROTERENOL], the AC50 at Endothelin-1 receptor is more than 30 µM; in assay [6] it was more than 10 µM; in assay [4], more than 30 µM; on Cannabinoid receptor 1 it was more than 30 µM; in [7] it was more than 10 µM; in [5], more than 10 µM.

For the molecule `OC1(c2ccc(Cl)cc2)c2ccccc2C2=NCCN21` (stereo not given) [MAZINDOL], the AC50 on Mu-type opioid receptor was 16 µM; on Endothelin-1 receptor, more than 30 µM; in assay [2], more than 30 µM; in [3], more than 30 µM; in assay [6] it was more than 30 µM; in [8], more than 30 µM. Also, the AC50 (in [4]; on Cannabinoid receptor 1; in assay [7]; in assay [5]) was more than 30 µM in each case.

As for `[H]/N=C(/N)N/C(=N/[H])NCCc1ccccc1` [PHENFORMIN], the AC50 (on Mu-type opioid receptor; on Endothelin-1 receptor; in assay [2]; in assay [3]; in [6]; in assay [4]) was more than 30 µM each time. For the same molecule, the half-maximal activity concentration (AC50) in assay [7] and in assay [5] was more than 10 µM each time.

Turning to `CCCCC1C(=O)N(c2ccccc2)N(c2ccccc2)C1=O` [PHENYLBUTAZONE], the AC50 is more than 10 µM in assay [6], more than 30 µM in [4], more than 10 µM in assay [7] and more than 10 µM in assay [5].

As for `CC[C@@H]([C@H](C)O)n1ncn(-c2ccc(N3CCN(c4ccc(OC[C@@H]5CO[C@@](Cn6cncn6)(c6ccc(F)cc6F)C5)cc4)CC3)cc2)c1=O` [POSACONAZOLE], the AC50 (at Acetylcholinesterase; in assay [3]; at Prothrombin; at Histamine H3 receptor) was more than 30 µM throughout.

For `CCCN[C@H]1CCc2nc(N)sc2C1` [PRAMIPEXOLE], the half-maximal activity concentration (AC50) was more than 30 µM in assay [2]; more than 10 µM in assay [3]; more than 10 µM in assay [6]; more than 30 µM in assay [8]; more than 30 µM in [4]; more than 30 µM on Cannabinoid receptor 1. Also, the AC50 in assay [7] and in assay [5] was more than 10 µM each time.

Turning to `Cc1noc(NS(=O)(=O)c2ccc(N)cc2)c1C` [SULFISOXAZOLE], the AC50 was more than 10 µM in [6]; more than 30 µM in [8]; more than 30 µM at Cannabinoid receptor 1; more than 10 µM in assay [7]; more than 10 µM in assay [5].

In the case of `Cc1cc2cc3c(C)cc(=O)oc3c(C)c2o1` [TRIOXSALEN], the concentration at half-maximal activity (AC50) on Mu-type opioid receptor was more than 30 µM; in assay [6] it was more than 10 µM; in [7], more than 10 µM; in assay [5], more than 10 µM.
